Converted amounts (≈) assume the structure as drawn. Read-outs that look alike come from different tables or passages of the source.
Key:
[1] = test system: L. donovani; parameters: method as in PMID 21358812; conditions: ex vivo splenic explant model system; read-out: IC50 against L. donovani; cited from earlier work
[2] = i.p., doses up to 200–350 mg/kg, once a day for five consecutive days, mice inoculated with leukemia P388 cells; cited from earlier work
[3] = test system: rat skeletal myoblast cells (L6); experiment: Cytotoxicity on rat skeletal myoblast cells (L6); format: cell-based
[4] = test system: Leishmania tropica promastigotes; experiment: Antileishmanial activity against L. tropica promastigotes (MTT assay); conditions: for IC50: 72 h, IC50 ± SD; for Ratio IC50 Miltef./IC50 Compd. (L. tropica): ratio between IC50 of miltefosine and that of each compound, L. tropica promastigotes
Protocol: (§5) Promastigote stage of L. infantum strain MHOM/TN/80/IPT1 (kindly provided by Dr. M. Gramiccia, ISS, Roma) and L. tropica (MHOM/SY/2012/ISS3130) were cultured in RPMI 1640 medium (EuroClone) supplemented with 10% heat-inactivated fetal calf serum (EuroClone, Milan Italy), 20 mM Hepes and 2 mM L-glutamine at 24 °C. […] Compounds were dissolved in DMSO and then diluted with medium to achieve the required concentrations. Drugs were placed in 96 wells round-bottom microplates and seven serial dilutions made. Miltefosine was used as reference anti-Leishmania drug. Parasites were diluted in complete medium to 5 × 10^6 parasites/mL and 100 μL of the suspension was seeded into the plates, incubated at 24 °C for 72 h and then 20 µL of MTT solution (5 mg/mL) was added into each well for 3 h. The plates were then centrifuged, the supernatants were discarded and the resulting pellets were dissolved in 100 µL of lysing buffer consisting of 20% (w/v) of a solution of SDS (Sigma), 40% DMF (Merck, Milan Italy) in H2O. The absorbance was measured spectrophotometrically at a test wavelength of 550 nm and a reference wavelength of 650 nm.

[5] = test system: rat skeletal myoblast cells (L6); conditions: cited from earlier work
[6] = test system: L. infantum promastigotes; experiment: Antileishmanial activity against L. infantum promastigotes (MTT assay); conditions: for IC50: Leishmania infantum, 72 h, read-out: IC50 L. infantum; for Ratio IC50 Miltef./IC50 Compd. (L. infantum): ratio between IC50 of miltefosine and that of each compound, L. infantum promastigotes
Protocol: as §5

[7] = test system: choline uptake into rat brain synaptosomes; parameters: method as in PMID 6124978; conditions: 1 µM concentration; cited from earlier work
[8] = test system: intramacrophagic L. tropica amastigotes; parameters: method as in PMID 6312823; conditions: cited from earlier work
[9] = Cytotoxicity against PMA-differentiated THP-1 cells (MTT); format: cell-based, human; conditions: human; PMA-differentiated THP-1; mean ± SD; read-out: THP-1 CC50
Protocol: (§1) The cytotoxic concentration (CC50) against THP-1 differentiated into macrophages (Table 3), used for testing the activity against the amastigote stage, is also reported.
(§2) THP-1 cells were plated at 5 × 10^5 cells/mL in 96 wells flat bottom microplates and treated with 0.1 µM PMA for 48 h to achieve differentiation into macrophages. Cells were then treated with serial dilutions of test compounds and cell proliferation evaluated using the MTT assay described for promastigotes.

[10] = test system: PMA-differentiated THP-1; experiment: as above; format: cell-based, human; conditions: CC50 THP-1 / IC50 L. infantum amastigotes
Protocol: as §1, §2

[11] = parameters: method as in PMID 4954156, PMID 4633870; conditions: bacteria not specified; cited from earlier work
[12] = test system: BChE; parameters: method as in PMID 3707621, PMID 25924599, PMID 21459491; conditions: cited from earlier work
[13] = test system: intramacrophagic amastigotes of L. infantum; experiment: Intracellular amastigote susceptibility assay in PMA-differentiated THP-1 macrophages; format: cell-based; conditions: Leishmania infantum, THP-1, 72 h, read-out: L. infantum Amastigotes IC50
Protocol: Finally, for a better idea of their real value as antileishmanial agents, compounds 14 and 17, displaying the most promising activity against promastigote stage and the highest SI values, together with lucanthone and the corresponding quinolizidine analog 1, were tested against the intramacrophagic amastigote stage of L. infantum.
THP-1 cells (human acute monocytic leukemia) were maintained in RPMI supplemented with 10% FBS (EuroClone), 50 µM 2-mercaptoethanol, 20 mM Hepes and 2 mM glutamine, at 37 °C in 5% CO2. For Leishmania infections, THP-1 cells were plated at 5 × 10^5 cells/mL in 16-chamber Lab-Tek culture slides (Nunc, Milan, Italy) and treated with 0.1 µM phorbol myristate acetate (PMA, Sigma) for 48 h to achieve differentiation into macrophages. Cells were washed and infected with metacyclic L. infantum promastigotes at a macrophage/promastigote ratio of 1/10 for 24 h. Cell monolayers were then washed and incubated in the presence of test compounds for 72 h. Slides were fixed with methanol and stained with Giemsa. The percentages of infected macrophages among treated and non-treated cells were determined by light microscopy.

[14] = Cytotoxicity against Vero-76 cells (crystal violet staining); format: cell-based, Cercopithecus Aethiops; conditions: Cercopithecus aethiops (African green monkey); Vero-76 monolayers; CC50 ± SD; read-out: CC50 Vero-76
Protocol: (§3) The cytotoxicity of lucanthone was also tested for comparison. […] The relevant selectivity index (SI)—a parameter that quantifies the preferential antileishmanial activity of a compound in relation to mammalian cell toxicity (CC50/IC50)—is tabulated in Table 2. […] The replacement of the 4-methyl substituent with an amino group in compound 14, while preserving good antileishmanial activity, led to a further substantial decrease of cytotoxicity, with a resultantly safer profile (SI = 16.2 and 16.9 for the two Leishmania species).
(§4) Vero-76 cells (ATCC CRL 1587 Cercopithecus Aethiops) were seeded at an initial density of 4 × 10^5 cells/mL in 24-well plates, in culture medium (Dulbecco’s modified eagle’s medium (D-MEM) with L-glutamine, supplemented with fetal bovine serum (FBS), 0.025 g/L kanamycin). Cell cultures were then incubated at 37 °C in a humidified, 5% CO2 atmosphere in the absence or presence of serial dilutions of test compounds. Cell viability was determined after 48–96 h at 37 °C by the Crystal violet staining method. The results are expressed as CC50, which is the concentration of compound necessary to inhibit cell growth by 50%. Each CC50 value is the mean and standard deviation of at least three separate experiments performed in duplicate.

[15] = test system: Vero-76 cells; experiment: as above; format: cell-based, Cercopithecus Aethiops
Protocol: as §3, §4

[16] = test system: AChE; parameters: method as in PMID 3707621, PMID 25924599, PMID 21459491; conditions: cited from earlier work
[17] = Leishmania tropica, read-out: IC50 L. tropica, promastigotes, MTT, 72 h

In the case of O=c1c2ccccc2sc2c(CO)ccc(CCN3CCCCC3)c12 [1-(piperidinoethyl)-4-hydroxymethylthioxanthen-9-one], the IC50 [1] is given as 9.1 µM.

For COc1ccc2sc3c(C)ccc(NCCC4CCCN5CCCCC45)c3c(=O)c2c1 (stereo not drawn) [Compound 6], the mortality [2] is listed as “no mortality”, the “selectivity index (SI) L6 vs L. infantum” value ([3]; CC50 L6 / IC50 L. infantum) is listed as at most 3 and the “selectivity index (SI) L6 vs L. tropica” value ([3]; CC50 L6 / IC50 L. tropica) is listed as 4.8. The IC50 [4, 17] was 28.4 ± 14.3 µM, the “Ratio IC50 Miltef./IC50 Compd. (L. tropica)” value [4] was 1.5 and the CC50 [5] was 137 µM. The IC50 [6] was over 46 µM and the “Ratio IC50 Miltef./IC50 Compd. (L. infantum)” value [6] was under 0.7.

For C(=C1c2ccccc2CCc2ccccc21)[C@@H]1CCCN2CCCC[C@H]12 [Compound 18, lupinylidene dibenzocycloheptadiene], the IC50 [4, 17] is listed as 24.2 ± 3.58 µM, the “Ratio IC50 Miltef./IC50 Compd. (L. tropica)” value [4] is listed as 1.8 and the “inhibition of choline uptake into rat brain synaptosomes” value [7] is listed as “inhibit the choline uptake”. The IC50 [6] was 25.2 ± 1.92 µM and the “Ratio IC50 Miltef./IC50 Compd. (L. infantum)” value [6] was 1.24.

In the case of CCN(CC)CCNc1ccc(C)c2sc3ccccc3c(=O)c12 [Lucanthone], the “IC50 against intramacrophagic L. tropica amastigotes” value [8] is listed as 0.93 µg/mL (≈ 2.73 µM), the IC50 ([8]; converted value in brackets, read-out: IC50 against intramacrophagic L. tropica amastigotes) is listed as 2470 nM and the CC50 [9] is listed as 15.2 ± 0.27 µM. For the same compound, the “SI (THP-1)” value [10] was 4.4, the “MIC (antibacterial activity)” value [11] was 30 to 60 µM and the “IC50 BChE inhibition” value [12] was “low micromolar and sub-micromolar range”. The IC50 [13] was 3.43 ± 0.93 µM, the CC50 [14] was 12.4 ± 2.1 µM and the “S.I. L. infantum” value ([15]; CC50 Vero-76 / IC50 L. infantum promastigotes) was 3.5. For the same compound, the “S.I. L. tropica” value ([15]; CC50 Vero-76 / IC50 L. tropica promastigotes) was 4.8, the “IC50 AChE inhibition” value [16] was “low micromolar and sub-micromolar range” and the IC50 [4, 17] was 2.5 µM. The “Ratio IC50 Miltef./IC50 Compd. (L. tropica)” value [4] was 16.8, the IC50 ([4]; read-out: IC50 L. tropica, promastigotes, MTT) was 2.57 ± 1.03 µM and the IC50 [6] was 3.5 ± 1.17 µM. For the same compound, the “Ratio IC50 Miltef./IC50 Compd. (L. infantum)” value [6] was 8.9.

— publication PMC7694037, “Quinolizidine-Derived Lucanthone and Amitriptyline Analogues Endowed with Potent Antileishmanial Activity” (Pharmaceuticals, 2020)
